Assay results published in the CheMixHub viscosity set.

Test: xn = mol fraction of the nth substance listed

C[Si]1(C)O[Si](C)(C)O[Si](C)(C)O[Si](C)(C)O1 + CCCCCCCCCCCCCC
viscosity [mPa·s], 103 kPa
Details | 298.15 K | 308.15 K | 318.15 K
x1 = 0.05 | 1.944 | 1.605 | 1.347
x1 = 0.1 | 1.905 | 1.579 | 1.327
x1 = 0.15 | 1.881 | 1.56 | 1.312
x1 = 0.2 | 1.859 | 1.536 | 1.293
x1 = 0.25 | 1.853 | 1.523 | 1.282
x1 = 0.3 | 1.843 | 1.527 | 1.287
x1 = 0.35 | 1.833 | 1.52 | 1.281
x1 = 0.4 | 1.831 | 1.518 | 1.278
x1 = 0.45 | 1.82 | 1.509 | 1.274
x1 = 0.5 | 1.815 | 1.507 | 1.273
x1 = 0.55 | 1.817 | 1.51 | 1.275
x1 = 0.6 | 1.824 | 1.515 | 1.279
x1 = 0.65 | 1.831 | 1.522 | 1.285
x1 = 0.7 | 1.844 | 1.533 | 1.294
x1 = 0.7498 | 1.861 | 1.548 | 1.307
x1 = 0.8 | 1.887 | 1.571 | 1.324
x1 = 0.85 | 1.922 | 1.6 | 1.349
x1 = 0.8999 | 1.965 | 1.632 | 1.376
x1 = 0.95 | 2.014 | 1.672 | 1.406

CCNc1ccccc1 + CCCCCCCCCCO
viscosity [mPa·s], 101 kPa
Details | 303.15 K | 308.15 K | 313.15 K
x1 = 0.0817 | 7.725 | 7.287 | 6.857
x1 = 0.1745 | 6.632 | 6.215 | 5.818
x1 = 0.2651 | 5.714 | 5.323 | 4.959
x1 = 0.3524 | 4.951 | 4.585 | 4.253
x1 = 0.4321 | 4.345 | 4.002 | 3.697
x1 = 0.5012 | 3.88 | 3.557 | 3.274
x1 = 0.5685 | 3.476 | 3.173 | 2.909
x1 = 0.6325 | 3.131 | 2.845 | 2.6
x1 = 0.6958 | 2.825 | 2.556 | 2.327
x1 = 0.7521 | 2.579 | 2.324 | 2.109
x1 = 0.8012 | 2.382 | 2.14 | 1.937
x1 = 0.8562 | 2.18 | 1.952 | 1.762
x1 = 0.9021 | 2.027 | 1.81 | 1.63
